Assay results reported in the supplement of paper PMC10883282.
± gives the standard deviation of the averaged measurements.

Tested on: HT1080
Experiment: relative viability vs DMSO control (72 h) (fraction); higher = more viable cells
Outline: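 Sarcoma cell lines were plated in 384 wells to reach 80–90% confluence, treated after 24 h with 2.5 µl of serially diluted compound and held 72 h at 37 °C, 5% CO2. Relative viability was taken as percent growth from ATPLite readings, averaged over up to triplicate wells. The values were rescaled so that 1 marks full and 0 marks none.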

| SMILES | relative viability (2 pM) | relative viability (5 pM) | relative viability (15 pM) | relative viability (50 pM) | relative viability (0.00014 µM) | relative viability (0.00041 µM) | relative viability (0.0012 µM) | relative viability (0.0037 µM) | relative viability (0.011 µM) | relative viability (200 fM) | relative viability (600 fM) | relative viability (0.00017 µM) | relative viability (0.00051 µM) | relative viability (0.00152 µM) | relative viability (0.00457 µM) | relative viability (0.01372 µM) | relative viability (0.04115 µM) | relative viability (0.1235 µM) | relative viability (0.3704 µM) | relative viability (1.111 µM) | relative viability (3.333 µM) | relative viability (10 µM) |
| --- | --- | --- | --- | --- | --- | --- | --- | --- | --- | --- | --- | --- | --- | --- | --- | --- | --- | --- | --- | --- | --- | --- |
| COc1cc2c(cc1O)CCN[C@]21CS[C@@H]2c3c(OC(C)=O)c(C)c4c(c3[C@H](COC1=O)N1[C@@H]2[C@H]2c3c(cc(C)c(OC)c3O)C[C@@H]([C@@H]1O)N2C)OCO4 [Trabectedin] | 1.13 ± 0.038 | 1.12 ± 0.048 | 1.09 ± 0.047 | 1.094 ± 0.0095 | 1.11 ± 0.031 | 1.077 ± 0.0069 | 0.023 ± 0.0022 | 0.21 ± 0.0023 | 0.159 ± 0.005 | 1.08 ± 0.032 | 1.14 ± 0.017 |  |  |  |  |  |  |  |  |  |  |  |
| C=CC(=O)Nc1cccc(Oc2nc(Nc3ccc(N4CCN(C)CC4)cc3)nc3ccsc23)c1 [Olmutinib] |  |  |  |  |  |  |  |  |  |  |  | 1.05 ± 0.021 | 1.08 ± 0.014 | 1.07 ± 0.017 | 1.07 ± 0.018 | 1.05 ± 0.049 | 1.0797 ± 0.00078 | 1.07 ± 0.011 | 1.06 ± 0.019 | 1.04 ± 0.015 | 1.03 ± 0.037 | 0.492 ± 0.13 |
| CC(C)NC(=O)C1CCC(n2c(NC(=O)c3ccc(F)cc3)nc3ccc(CN4CCC(C(C)(C)O)CC4)cc32)CC1 (stereo not drawn) [Belizatinib] |  |  |  |  |  |  |  |  |  |  |  | 1.079 ± 0.0088 | 1.09 ± 0.036 | 1.05 ± 0.018 | 1.08 ± 0.057 | 1.07 ± 0.052 | 1.08 ± 0.021 | 1.062 ± 0.0014 | 1.06 ± 0.069 | 1.03 ± 0.056 | 0.866 ± 0.014 | 0.4946 ± 0.0036 |
| CCN1CCN(Cc2ccc(Nc3ncc(F)c(-c4cc(F)c5nc(C)n(C(C)C)c5c4)n3)nc2)CC1 [Abemaciclib] |  |  |  |  |  |  |  |  |  |  |  | 1.05 ± 0.0085 | 1.05 ± 0.034 | 1.06 ± 0.018 | 1.08 ± 0.034 | 1.06 ± 0.011 | 1.07 ± 0.018 | 1.13 ± 0.053 | 1.18 ± 0.045 | 1.15 ± 0.055 | 1.07 ± 0.045 | 0.926 ± 0.063 |
| COc1c(OCCCN2CCOCC2)ccc2c1N=C(NC(=O)c1cnc(N)nc1)N1CCN=C21 [Copanlisib] |  |  |  |  |  |  |  |  |  |  |  | 1.15 ± 0.059 | 1.14 ± 0.034 | 1.12 ± 0.04 | 1.111 ± 0.0021 | 1.1 ± 0.017 | 1.12 ± 0.016 | 1.08 ± 0.034 | 0.964 ± 0.026 | 0.65405 ± 0.00049 | 0.342 ± 0.022 | 0.224 ± 0.025 |
| Cc1nc(-c2cn3c(n2)-c2ccc(-c4cnn(C(C)(C)C(N)=O)c4)cc2OCC3)n(C(C)C)n1 [Taselisib] |  |  |  |  |  |  |  |  |  |  |  | 1.016 ± 0.01 | 1.01 ± 0.017 | 1.02 ± 0.015 | 1.03 ± 0.056 | 1.02 ± 0.011 | 1.02 ± 0.016 | 1.034 ± 0.0069 | 1.04 ± 0.018 | 1.02 ± 0.052 | 1.01 ± 0.012 | 0.738 ± 0.0029 |
| O=C(Cc1ccc(-c2ccc(OCCN3CCOCC3)cc2)cn1)NCc1ccccc1 [KX2-391] |  |  |  |  |  |  |  |  |  |  |  | 1.07 ± 0.025 | 1.1 ± 0.013 | 1.11 ± 0.019 | 1.1 ± 0.033 | 1.06 ± 0.013 | 1.06 ± 0.022 | 0.117 ± 0.0064 | 0.0565 ± 0.0006 | 0.0434 ± 0.0068 | 0.0333 ± 0.0026 | 0.0365 ± 0.0027 |
| C[C@@H]1COCCN1c1cc(-c2ccnn2C)c2ccnc(-c3ccn[nH]3)c2n1 |  |  |  |  |  |  |  |  |  |  |  | 1.044 ± 0.0047 | 1.03 ± 0.014 | 1.024 ± 0.0029 | 1.02 ± 0.025 | 0.998 ± 0.035 | 0.954 ± 0.017 | 0.735 ± 0.037 | 0.28 ± 0.0093 | 0.191 ± 0.0041 | 0.16 ± 0.0093 | 0.1555 ± 0.00028 |
| Cc1cnc(Nc2ccc(OCCN3CCCC3)cc2)nc1Nc1cccc(S(=O)(=O)NC(C)(C)C)c1 [Fedratinib] |  |  |  |  |  |  |  |  |  |  |  | 1.11 ± 0.027 | 1.03 ± 0.056 | 1.08 ± 0.0082 | 1.06 ± 0.032 | 1.07 ± 0.044 | 1.05 ± 0.044 | 1.04 ± 0.009 | 1.03 ± 0.022 | 0.813 ± 0.015 | 0.391 ± 0.014 | 0.0298 ± 0.0037 |
| CC(C)N1CCN(Cc2cnc(-c3cc(-c4cccc5[nH]ccc45)cc4[nH]ncc34)o2)CC1 [Nemiralisib] |  |  |  |  |  |  |  |  |  |  |  | 1 ± 0.045 | 1.03 ± 0.015 | 1.01 ± 0.02 | 1.027 ± 0.0081 | 1.008 ± 0.0024 | 1.02 ± 0.011 | 1.05 ± 0.045 | 1.05 ± 0.034 | 1.08 ± 0.068 | 1.02 ± 0.033 | 0.858 ± 0.024 |
| Cc1ccc(NC(=O)c2ccc(CN3CCN(C)CC3)cc2)cc1Nc1nc(-c2cccnc2)cs1 [Masitinib] |  |  |  |  |  |  |  |  |  |  |  | 1.02 ± 0.029 | 1.06 ± 0.022 | 1.06 ± 0.0062 | 1.08 ± 0.033 | 1.05 ± 0.019 | 1.06 ± 0.021 | 1.03 ± 0.032 | 1.02 ± 0.044 | 0.89 ± 0.02 | 0.642 ± 0.06 | 0.177 ± 0.012 |
| CCc1cc2c(cc1N1CCC(N3CCOCC3)CC1)C(C)(C)c1[nH]c3cc(C#N)ccc3c1C2=O [Alectinib] |  |  |  |  |  |  |  |  |  |  |  | 1.07 ± 0.018 | 1.09 ± 0.0051 | 1.06 ± 0.032 | 1.09 ± 0.014 | 1.077 ± 0.0047 | 1.11 ± 0.045 | 1.08 ± 0.02 | 1.11 ± 0.028 | 1.07 ± 0.024 | 1.07 ± 0.047 | 1.02 ± 0.051 |
| COc1cc2nccc(Oc3ccc(NC(=O)Nc4cc(C)on4)c(Cl)c3)c2cc1OC [Tivozanib] |  |  |  |  |  |  |  |  |  |  |  | 1.04 ± 0.027 | 1.06 ± 0.021 | 1.06 ± 0.032 | 1.07 ± 0.026 | 1.046 ± 0.01 | 1.06 ± 0.02 | 1.05 ± 0.019 | 1.07 ± 0.02 | 1.1 ± 0.04 | 1.12 ± 0.015 | 0.967 ± 0.021 |
